Experimental findings from patent US10632106B2, “Methods of cancer treatment with 2-(1′H-Indole-3′-carbonyl)-thiazole-4-carboxylic acid methyl ester” (Ariagen, Inc., priority 2009, dated 2020) are described below.

A short description of data set [1]: PK studies of ITE in male nude mice (single dosing). The conditions noted are these: for AUC / half-life: male, nude, mouse, plasma. The format is in vivo. Here is the method:
Male nude mice were also used in PK (pharmacokinetic) studies. For i.v. injection, ITE at 1 mg/kg b.w. was administered with DMSO as vehicle via tail vein. For i.p. Injection, ITE at 10, 40, and 80 mg/kg b.w. was delivered with DMSO via lower left abdominal quadrant. In p.o. injection, ITE at 40 and 80 mg/kg b.w. were administered with a vehicle of Labrasol:PEG 400 (2:8, v/v) via oral gavage. Every 15 mice were given a single injection at each dosing level and every 3 of the dosed mice were used to collect blood sample at each time point (0, 0.083, 0.25, 0.5, 1, 2, 4, 8, 24 hr.). Animals were rotated to be sampled twice each but the duration between the two sampling times was at least 110 min. The animal was anesthetized under Isoflurane and restrained manually. Approximately 150 μl of whole blood at each time point is collected (via retro-orbital puncture) into a K2-EDTA tube. Blood samples were put on ice and processed to plasma (4,000 g, 5 min, 4° C.) within 15 min post sampling. Plasma samples were stored at −80° C. until analysis. An aliquot of 20 μl plasma sample was added with 20 μl of an internal standard (Glipizide, 500 ng/ml in ΔCN, for extraction efficiency) to 120 μl of ΔCN (acetonitrile). The mixture was vortexed at 1,500 rpm for 2 min. and then centrifuged at 12,000 rpm for 5 min. Five (5) μl of the supernatant was injected into an LC-MS/MS system (API 4000, Foster City, Calif., USA). A Gemini-C18 column (2.0×50 mm, 5 μm) was used and the LC (liquid chromatography) was run at a flow rate of 0.45 ml/min. with the following program: where Pump A was for 1 mM NH4OAc (ammonium acetate) in water plus 0.025% FA (formic acid) whereas Pump B for 1 mM NH4OAC in acetonitrile plus 0.025% FA. The negative ionization process of the mass spectrometry was operated at an APCI (Atmospheric Pressure Chemical Ionization) mode while the detection at a MRM (Multiple Reaction Monitoring) mode. ITE was identified by recognizing an LC retention time of 2.5 min. and two mass peaks at 285.0 (before collision) and 142.0 m/z (after collision) while the internal standard of 2.35 min. and two mass peaks at 444.3 (before collision) and 319.3 m/z (after collision). ITE was quantified by a standard curve generated every time by a series of known quantities of ITE running through both the extraction/precipitation process after mixing with mouse plasma and the LC-MS/MS system. The WinNonlin V5.2 statistics software (Pharsight Corporation, California, USA) was used to generate PK parameters such as Cmax, Tmax, T1/2, and AUC (Area under Curve) etc. using a non-compartmental model. Results

In data set [2] the test system is SW116 (human colon cancer) xenografts. Kind of data set: SW116 xenograft growth inhibition. As to conditions: ITE 100-200 mg/kg i.p. once daily. The format is in vivo. The method, then: All the procedures related to animal handling, care, and the treatment in the study were performed following guidelines of KeyGen Biotechn Co., Ltd. (Nanjing, China), a contract research organization we hired, based on the guidance of the Association for Assessment and Accreditation of Laboratory Animal Care (AAALAC). Animals were checked for any effects of tumor growth and drug treatment on normal behavior such as mobility, food and water consumption, body weight gain/loss (bodyweights were measured every two days), eye/hair matting, and any other abnormal effect. Death and observed clinical signs were recorded. Individual animals with a tumor volume exceeding 3,000 mm^3 or animals of a group with a mean tumor volume exceeding 2,000 mm^3 were euthanized. In addition, animals showing signs of severe distress and/or pain or losing the capability of accessing adequate food or water were humanely sacrificed.
Cell lines HCT116, Siha, MFC were cultured in DMEM medium (high glucose) supplemented with 10% fetal bovine serum (FBS), SW116 and T24 in RPMI-1640 medium with 10% FBS, M14 and A375 in DMEM medium (high glucose) with 10% calf serum (CS), SGC7901 and Ketr-3 in RPMI-1640 medium with 10% CS, and CFPAC-1 in IMDM medium with 10% FBS. All of the cells were cultured, in the presence of 100 U/ml penicillin and 100 μg/ml streptomycin, at 37° C. in an atmosphere of 5% CO2 in air. […] The cells growing in an exponential phase were harvested and counted for tumor inoculation. Cell lines 5180 and U14 were maintained in ascites (peritoneal cavity fluid) of mice and were harvested and counted for tumor inoculation. […]
Tumor volume was measured every two days in two dimensions using a caliper and the volume was calculated with a formula of: V=0.5 a×b^2, where a and b are the long and short diameter (in mm) of a tumor, respectively. […] The TGD was calculated as: TGD=T−C, where T was the time (in days) required for tumors in a drug treated group to reach a predetermined mean tumor volume and C the time (in days) in the control group to reach the same volume. […]

The mark [3] stands for this setting: iv, 1 mg/kg b.w. bolus i.v. in DMSO.

A word on the AUC: it is concentration integrated over time. A low value points to less exposure. What is called half-life is how long it takes for the measured level to halve. `COC(=O)c1csc(C(=O)c2c[nH]c3ccccc23)n1` [ITE, 2-(1′H-indole-3′-carbonyl)-thiazole-4-carboxylic acid methyl ester]: the “efficiency of absorption compared with i.v. injection” value in data set [1] (i.p. injection in DMSO) is given as “below 10%”. The AUC in data set [1] (ip, 10 mg/kg b.w. i.p. in DMSO) came to 197 ng·h/mL; in data set [1] (ip, 40 mg/kg b.w. i.p. in DMSO), 332 ng·h/mL; in data set [1] (ip, 80 mg/kg b.w. i.p. in DMSO) it was 499 ng·h/mL; in data set [1] (setting [3]), 256 ng·h/mL; in data set [1] (po, 40 mg/kg b.w. p.o. in Labrasol:PEG 400 (2:8, v/v)) it was 107 ng·h/mL; in data set [1] (po, 80 mg/kg b.w. p.o. in Labrasol:PEG 400 (2:8, v/v)), 97 ng·h/mL. The half-life in data set [1] (ip, 10 mg/kg b.w. i.p. in DMSO) is 1.13 h; in data set [1] (ip, 40 mg/kg b.w. i.p. in DMSO), 1.61 h; in data set [1] (ip, 80 mg/kg b.w. i.p. in DMSO) it was 5.17 h; in data set [1] (setting [3]), 0.1 h. The absorption efficiency result in data set [1] (p.o. in Labrasol:PEG 400 (2:8, v/v)) is given as “around 1%”. Further, in data set [2] (TGD at Vol. 1,000), the TGD was 9 days. Also, the “TGI (%)” value in data set [2] (TGI at day 20, TGI=(1−ΔT/ΔC)×100%) is on record as 67%. Also, the “Weight Loss” value in data set [2] (end of therapy relative to beginning) came to 15%.
